Measured values published in patent US8658604B2, “Template-fixed beta-hairpin peptidomimetics with protease inhibitory activity” (Polyphor Ltd, priority 2005, dated 2014).
pIC50: −log10 of the molar value. Like-named read-outs stand apart in the source and are kept apart here. Where a SMILES comes first, the peptide text is derived from it.

Key:
[1] = biological target: Trypsin, from human pancreas (Homo sapiens, UniProt P07477); assay: Enzymatic assay, trypsin; conditions: at 100 μM
Chymase, from human skin = biological target: T1, Chymase, from human skin (Homo sapiens, UniProt P23946); assay: Enzymatic assay, chymase
T1 sequence (P23946 22-247): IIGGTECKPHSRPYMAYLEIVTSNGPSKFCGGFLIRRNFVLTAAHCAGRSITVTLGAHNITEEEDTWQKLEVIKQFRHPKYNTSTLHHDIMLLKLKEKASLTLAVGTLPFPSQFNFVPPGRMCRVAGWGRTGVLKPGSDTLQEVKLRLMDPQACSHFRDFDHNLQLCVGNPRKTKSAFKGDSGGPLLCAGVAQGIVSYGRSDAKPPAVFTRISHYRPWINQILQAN

[2] = biological target: T2, Elastase from human neutrophils (Homo sapiens, UniProt P08246); assay: Enzymatic assay, elastase; conditions: Elastase IC50
T2 sequence (P08246 30-267): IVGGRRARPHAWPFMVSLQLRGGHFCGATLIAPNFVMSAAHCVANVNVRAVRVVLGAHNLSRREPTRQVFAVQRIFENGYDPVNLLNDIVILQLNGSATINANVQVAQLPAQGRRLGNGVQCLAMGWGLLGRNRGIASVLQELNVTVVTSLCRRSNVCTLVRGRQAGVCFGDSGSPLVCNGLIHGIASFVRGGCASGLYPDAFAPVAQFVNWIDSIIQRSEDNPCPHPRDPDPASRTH

[3] = biological target: Thrombin, from Human Plasma (Homo sapiens, UniProt P00734); assay: Enzymatic assay, thrombin
[4] = tested on: Tryptase, from human lung; assay: Enzymatic assay, tryptase; conditions: at 100 μM
[5] = biological target: Urokinase from human urine (Homo sapiens, UniProt P00749); assay: Enzymatic assay, urokinase
[6] = biological target: T3, CathepsinG, from human neutrophils (Homo sapiens, UniProt P08311); assay: Enzymatic assay, cathepsin G
T3 sequence (P08311 21-244): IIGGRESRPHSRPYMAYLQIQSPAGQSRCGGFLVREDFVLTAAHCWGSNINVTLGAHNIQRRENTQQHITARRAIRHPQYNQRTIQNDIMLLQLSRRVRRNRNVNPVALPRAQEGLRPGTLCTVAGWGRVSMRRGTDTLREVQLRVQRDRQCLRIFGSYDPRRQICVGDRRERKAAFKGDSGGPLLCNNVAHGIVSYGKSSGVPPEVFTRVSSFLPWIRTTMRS

[7] = biological target: Chymotrypsin, from human pancreas (Homo sapiens, UniProt P17538); assay: Enzymatic assay, chymotrypsin; conditions: at 100 μM
Sequence of Chymotrypsin, from human pancreas (P17538 19-263): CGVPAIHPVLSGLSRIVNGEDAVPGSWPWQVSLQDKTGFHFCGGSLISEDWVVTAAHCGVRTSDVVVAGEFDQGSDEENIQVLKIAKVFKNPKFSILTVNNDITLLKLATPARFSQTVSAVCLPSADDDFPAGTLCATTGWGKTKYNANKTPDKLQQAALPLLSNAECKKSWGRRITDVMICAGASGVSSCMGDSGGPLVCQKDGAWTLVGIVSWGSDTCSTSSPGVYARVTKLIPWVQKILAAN

[8] = biological target: Coagulation Factor Xa, from uman plasma (Homo sapiens, UniProt P00742); assay: Enzymatic assay, coagulation factor Xa
Sequence of Coagulation Factor Xa, from uman plasma (P00742 235-488 limits assumed): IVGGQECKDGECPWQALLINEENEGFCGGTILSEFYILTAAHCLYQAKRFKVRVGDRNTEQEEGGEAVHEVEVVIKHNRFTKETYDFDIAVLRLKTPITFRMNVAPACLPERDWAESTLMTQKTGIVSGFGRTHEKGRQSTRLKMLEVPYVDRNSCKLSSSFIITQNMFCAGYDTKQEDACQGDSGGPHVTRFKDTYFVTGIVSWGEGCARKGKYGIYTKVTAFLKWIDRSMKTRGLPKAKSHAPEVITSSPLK
Sequence of Coagulation Factor Xa, from uman plasma (P00742 41-179 limits assumed): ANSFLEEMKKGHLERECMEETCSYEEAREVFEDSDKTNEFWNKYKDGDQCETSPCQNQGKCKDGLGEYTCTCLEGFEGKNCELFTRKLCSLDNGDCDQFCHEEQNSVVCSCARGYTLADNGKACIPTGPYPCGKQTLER

SMILES	Trypsin at 100 μM % [1]	Chymase at 100 μM % (Chymase, from human skin)	pIC50 [2]	Thrombin at 100 μM % [3]	Tryptase at 100 μM % [4]	Urokinase at 100 μM % [5]	pIC50 ([6]; Cathepsin G IC50)	Chymotrypsin at 100 μM % [7]	FXa at 100 μM % [8]	Cathepsin G at 100 μM % ([6]; at 100 μM (stated in cell instead of IC50))	Tryptase At 100 μM % [4]	Cathepsin G at 100 μM % ([6]; at 100 μM)	pIC50 ([6]; read-out: Cathepsin G IC50)
CC[C@H](C)[C@@H]1NC(=O)[C@@H]2CCCN2C(=O)[C@@H]2CCCN2C(=O)[C@H](CC(=O)O)NC(=O)[C@H](CO)NC(=O)[C@H](CCCCN)NC(=O)[C@H]([C@@H](C)O)NC(=O)[C@@H]2CSSC[C@H](NC1=O)C(=O)N[C@@H](CC(=O)O)C(=O)N1CCC[C@@H]1C(=O)N1CCC[C@H]1C(=O)N[C@@H](Cc1ccccc1)C(=O)N2 [Ex. 2] (HELM PEPTIDE1{F.C.T.K.S.D.P.P.I.C.D.[dP].P}$PEPTIDE1,PEPTIDE1,2:R3-10:R3|PEPTIDE1,PEPTIDE1,1:R1-13:R2$$$V2.0)	92%	0%	< 4.00	9.2%	39.6%	0.9%	7.08	2.9%	5.3%				
CC[C@H](C)[C@@H]1NC(=O)[C@@H]2CCCN2C(=O)[C@@H]2CCCN2C(=O)[C@H](CC(=O)O)NC(=O)[C@H](CO)NC(=O)[C@H](CCCCN)NC(=O)[C@H]([C@@H](C)O)NC(=O)[C@@H]2CSSC[C@H](NC1=O)C(=O)N[C@@H](Cc1ccc(O)cc1)C(=O)N1CCC[C@@H]1C(=O)N1CCC[C@H]1C(=O)N[C@@H](Cc1ccc(O)cc1)C(=O)N2 [Ex. 26] (HELM PEPTIDE1{Y.C.T.K.S.D.P.P.I.C.Y.[dP].P}$PEPTIDE1,PEPTIDE1,2:R3-10:R3|PEPTIDE1,PEPTIDE1,1:R1-13:R2$$$V2.0)	84%	0%	< 4.00	3%	66.4%	3.1%	7.31	2.2%	6%				
CC[C@H](C)[C@@H]1NC(=O)[C@@H]2CCCN2C(=O)[C@@H]2CCCN2C(=O)[C@H](CC(=O)O)NC(=O)[C@H](CO)NC(=O)[C@H](CCCCN)NC(=O)[C@H]([C@@H](C)O)NC(=O)[C@@H]2CSSC[C@H](NC1=O)C(=O)N[C@@H]([C@@H](C)O)C(=O)N1CCC[C@@H]1C(=O)N1CCC[C@H]1C(=O)N[C@@H](CCc1ccccc1)C(=O)N2 [Ex. 28] (HELM PEPTIDE1{[O=C([C@H](CCc1ccccc1)N[*:1])[*:2]].C.T.K.S.D.P.P.I.C.T.[dP].P}$PEPTIDE1,PEPTIDE1,2:R3-10:R3|PEPTIDE1,PEPTIDE1,1:R1-13:R2$$$V2.0)	95%	0%	< 4.00	12%	0%	1%	7.41	32%	6%				
CC[C@H](C)[C@@H]1NC(=O)[C@@H]2CCCN2C(=O)[C@@H]2CCCN2C(=O)[C@H](CC(=O)O)NC(=O)[C@H](CO)NC(=O)[C@H](CCCCN)NC(=O)[C@H]([C@@H](C)O)NC(=O)[C@@H]2CSSC[C@H](NC1=O)C(=O)N[C@@H](CC(N)=O)C(=O)N1CCC[C@@H]1C(=O)N1CCC[C@H]1C(=O)N[C@@H](Cc1ccc(N)cc1)C(=O)N2 [Ex. 31] (HELM PEPTIDE1{[Nc1ccc(C[C@H](N[*:1])C(=O)[*:2])cc1].C.T.K.S.D.P.P.I.C.N.[dP].P}$PEPTIDE1,PEPTIDE1,2:R3-10:R3|PEPTIDE1,PEPTIDE1,1:R1-13:R2$$$V2.0)	98%	12%	< 4.00	10%	76%	15%	7.47	15%	8%				
CC[C@H](C)[C@@H]1NC(=O)[C@@H]2CCCN2C(=O)[C@@H]2CCCN2C(=O)[C@H](CC(=O)O)NC(=O)[C@H](CO)NC(=O)[C@H](CCCCN)NC(=O)[C@H]([C@@H](C)O)NC(=O)[C@@H]2CSSC[C@H](NC1=O)C(=O)N[C@@H](CO)C(=O)N[C@H](C)C(=O)N[C@@H](CC(=O)O)C(=O)N[C@@H](Cc1ccccc1)C(=O)N2 [Ex. 68] (HELM PEPTIDE1{F.C.T.K.S.D.P.P.I.C.S.[dA].D}$PEPTIDE1,PEPTIDE1,2:R3-10:R3|PEPTIDE1,PEPTIDE1,1:R1-13:R2$$$V2.0)	84.2%	0%	< 4.00	5.4%	21.3%	4.6%	7.23	4.3%	8.6%				
CCCC[C@@H]1NC(=O)[C@@H]2CCCN2C(=O)[C@H]2CCCN2C(=O)[C@H](Cc2ccc(O)cc2)NC(=O)[C@H](CCCCN)NC(=O)[C@H](CCC(N)=O)NC(=O)[C@@H]2CCCN2C(=O)[C@@H]2CCCN2C(=O)[C@H]([C@@H](C)CC)NC(=O)[C@H](CO)NC(=O)[C@H](C)NC(=O)[C@H]([C@@H](C)O)NC(=O)[C@H](CCC(=O)O)NC1=O [Ex. 104] (HELM PEPTIDE1{[Nle].E.T.A.S.I.P.P.Q.K.Y.[dP].P}$PEPTIDE1,PEPTIDE1,1:R1-13:R2$$$V2.0)	0%	0%	7.47	7.7%	0%	0%		3.1 at 100 μM %	6.2%	53.5 at 100%			
CC[C@H](C)[C@@H]1NC(=O)[C@H](CO)NC(=O)[C@H](C)NC(=O)[C@H]([C@@H](C)O)NC(=O)[C@@H]2CSSC[C@H](NC(=O)[C@H](CCC(N)=O)NC(=O)[C@@H]3CCCN3C(=O)[C@@H]3CCCN3C1=O)C(=O)N[C@@H](CCC(N)=O)C(=O)N1CCC[C@@H]1C(=O)N1CCC[C@H]1C(=O)N[C@@H](CCc1ccccc1)C(=O)N2 [Ex. 143] (HELM PEPTIDE1{[O=C([C@H](CCc1ccccc1)N[*:1])[*:2]].C.T.A.S.I.P.P.Q.C.Q.[dP].P}$PEPTIDE1,PEPTIDE1,2:R3-10:R3|PEPTIDE1,PEPTIDE1,1:R1-13:R2$$$V2.0)	12%	0%	7.82	12%		8%		91%	0%		18%	28 at 100%	
CCCC[C@@H]1NC(=O)[C@@H]2CCCN2C(=O)[C@H]2CCCN2C(=O)[C@H](Cc2ccccc2Cl)NC(=O)[C@@H]2CSSC[C@H](NC1=O)C(=O)N[C@@H]([C@@H](C)O)C(=O)N[C@@H](C)C(=O)N[C@@H](CO)C(=O)N[C@@H]([C@@H](C)CC)C(=O)N1CCC[C@H]1C(=O)N1CCC[C@H]1C(=O)N[C@@H](CCC(N)=O)C(=O)N2 [Ex. 144] (HELM PEPTIDE1{[Nle].C.T.A.S.I.P.P.Q.C.[O=C([C@H](Cc1ccccc1Cl)N[*:1])[*:2]].[dP].P}$PEPTIDE1,PEPTIDE1,2:R3-10:R3|PEPTIDE1,PEPTIDE1,1:R1-13:R2$$$V2.0)	7.5%	0%	8.12	3.6%		6.2%		80.6%	0%		0%		4.67
